From PubChem BioAssay AID2060492 (Molecular Pharmacology Branch, DTP, NCI, 2025)

Tested on: 695427-040-R-J1-PDC complex spheroids, viability percent T/C
Experiment: Anticancer human tumor 695427-040-R-J1-PDC patient-derived colon adenocarcinoma cell line growth inhibition [GQUAD]
Conditions: for IC50: curve of first compound; for viability, T/C: stronger effect = lower value
Method in brief: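 Viability of tumor cells grown as complex spheroids with endothelial and stromal cells, exposed to drug combinations. Top concentration at or near clinical Cmax (else 10 microM), diluted in half-log increments.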

[1] = second compound 0.0316 µM, first compound 0.000999 µM
[2] = second compound 0.0316 µM, first compound 0.00316 µM
[3] = second compound 0.0316 µM, first compound 0.00999 µM
[4] = second compound 0.0316 µM, first compound 0.0316 µM
[5] = second compound 0.0316 µM, first compound 0.0999 µM
[6] = second compound 0.0316 µM, first compound 0.316 µM
[7] = second compound 0.1 µM, first compound 0.000999 µM
[8] = second compound 0.1 µM, first compound 0.00316 µM
[9] = second compound 0.1 µM, first compound 0.00999 µM
[10] = second compound 0.1 µM, first compound 0.0316 µM
[11] = second compound 0.1 µM, first compound 0.0999 µM
[12] = second compound 0.1 µM, first compound 0.316 µM
[13] = second compound 0.316 µM, first compound 0.000999 µM
[14] = second compound 0.316 µM, first compound 0.00316 µM
[15] = second compound 0.316 µM, first compound 0.00999 µM
[16] = second compound 0.316 µM, first compound 0.0316 µM
[17] = second compound 0.316 µM, first compound 0.0999 µM
[18] = second compound 0.316 µM, first compound 0.316 µM
[19] = second compound 1 µM, first compound 0.000999 µM
[20] = second compound 1 µM, first compound 0.00316 µM
[21] = second compound 1 µM, first compound 0.00999 µM
[22] = second compound 1 µM, first compound 0.0316 µM
[23] = second compound 1 µM, first compound 0.0999 µM
[24] = second compound 1 µM, first compound 0.316 µM
[25] = second compound 3.16 µM, first compound 0.000999 µM
[26] = second compound 3.16 µM, first compound 0.00316 µM
[27] = second compound 3.16 µM, first compound 0.00999 µM
[28] = second compound 3.16 µM, first compound 0.0316 µM
[29] = second compound 3.16 µM, first compound 0.0999 µM
[30] = second compound 3.16 µM, first compound 0.316 µM
[31] = second compound 10 µM, first compound 0.000999 µM
[32] = second compound 10 µM, first compound 0.00316 µM
[33] = second compound 10 µM, first compound 0.00999 µM
[34] = second compound 10 µM, first compound 0.0316 µM
[35] = second compound 10 µM, first compound 0.0999 µM
[36] = second compound 10 µM, first compound 0.316 µM
[37] = second compound 0.0316 µM, first compound 0.1 µM
[38] = second compound 0.0316 µM, first compound 1 µM
[39] = second compound 0.0316 µM, first compound 3.16 µM
[40] = second compound 0.0316 µM, first compound 10 µM
[41] = second compound 0.1 µM, first compound 0.1 µM
[42] = second compound 0.1 µM, first compound 1 µM
[43] = second compound 0.1 µM, first compound 3.16 µM
[44] = second compound 0.1 µM, first compound 10 µM
[45] = second compound 0.316 µM, first compound 0.1 µM
[46] = second compound 0.316 µM, first compound 1 µM
[47] = second compound 0.316 µM, first compound 3.16 µM
[48] = second compound 0.316 µM, first compound 10 µM
[49] = second compound 1 µM, first compound 0.1 µM
[50] = second compound 1 µM, first compound 1 µM
[51] = second compound 1 µM, first compound 3.16 µM
[52] = second compound 1 µM, first compound 10 µM
[53] = second compound 3.16 µM, first compound 0.1 µM
[54] = second compound 3.16 µM, first compound 1 µM
[55] = second compound 3.16 µM, first compound 3.16 µM
[56] = second compound 3.16 µM, first compound 10 µM
[57] = second compound 10 µM, first compound 0.1 µM
[58] = second compound 10 µM, first compound 1 µM
[59] = second compound 10 µM, first compound 3.16 µM
[60] = second compound 10 µM, first compound 10 µM
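Further: spheroids exposed to compounds for seven days before readout.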

Structure (SMILES): CCc1c2c(nc3ccc(O)cc13)-c1cc3c(c(=O)n1C2)COC(=O)[C@]3(O)CC + Cc1[nH]c2ccc(F)cc2c1-c1nc2c3cccnc3c3ncccc3c2[nH]1
- IC50 (second compound 0.0316 µM): 168 nM
- IC50 (second compound 0.1 µM): 161 nM
- IC50 (second compound 0.316 µM): 112 nM
- IC50 (second compound 1 µM): 106 nM
- IC50 (second compound 3.16 µM): 82.4 nM
- IC50 (second compound 10 µM): 106 nM
- viability, T/C [1]: 95.4%
- viability, T/C [2]: 74%
- viability, T/C [3]: 87.9%
- viability, T/C [4]: 57.8%
- viability, T/C [5]: 62%
- viability, T/C [6]: 40.8%
- viability, T/C [7]: 93.7%
- viability, T/C [8]: 71.6%
- viability, T/C [9]: 80.2%
- viability, T/C [10]: 57.7%
- viability, T/C [11]: 57.6%
- viability, T/C [12]: 43%
- viability, T/C [13]: 99.5%
- viability, T/C [14]: 64.2%
- viability, T/C [15]: 82.2%
- viability, T/C [16]: 63.2%
- viability, T/C [17]: 56.1%
- viability, T/C [18]: 34.5%
- viability, T/C [19]: 67.7%
- viability, T/C [20]: 85.8%
- viability, T/C [21]: 82%
- viability, T/C [22]: 64.6%
- viability, T/C [23]: 52.5%
- viability, T/C [24]: 37.6%
- viability, T/C [25]: 72%
- viability, T/C [26]: 74.5%
- viability, T/C [27]: 63.5%
- viability, T/C [28]: 59.5%
- viability, T/C [29]: 48.7%
- viability, T/C [30]: 33.2%
- viability, T/C [31]: 71.9%
- viability, T/C [32]: 72.2%
- viability, T/C [33]: 66.4%
- viability, T/C [34]: 60.8%
- viability, T/C [35]: 49.8%
- viability, T/C [36]: 37.4%

Structure (SMILES): COc1ccc([C@@H](O)c2cc(-c3ncnc4cc(N5CCOCC5)ccc34)c(F)cc2Cl)nn1 + Cc1[nH]c2ccc(F)cc2c1-c1nc2c3cccnc3c3ncccc3c2[nH]1
- IC50 (second compound 0.0316 µM): 3620 nM
- IC50 (second compound 0.1 µM): > 10000 nM
- IC50 (second compound 0.316 µM): > 10000 nM
- IC50 (second compound 1 µM): 9520 nM
- IC50 (second compound 3.16 µM): 5460 nM
- IC50 (second compound 10 µM): 4230 nM
- viability, T/C [4]: 105%
- viability, T/C [37]: 82.6%
- viability, T/C [6]: 80.9%
- viability, T/C [38]: 50.7%
- viability, T/C [39]: 58.2%
- viability, T/C [40]: 40.8%
- viability, T/C [10]: 103%
- viability, T/C [41]: 81.3%
- viability, T/C [12]: 83.5%
- viability, T/C [42]: 56.6%
- viability, T/C [43]: 72.1%
- viability, T/C [44]: 46.7%
- viability, T/C [16]: 90.7%
- viability, T/C [45]: 89.8%
- viability, T/C [18]: 80.3%
- viability, T/C [46]: 72%
- viability, T/C [47]: 71.5%
- viability, T/C [48]: 51.2%
- viability, T/C [22]: 74.2%
- viability, T/C [49]: 78.5%
- viability, T/C [24]: 83.9%
- viability, T/C [50]: 68.9%
- viability, T/C [51]: 73.9%
- viability, T/C [52]: 48.9%
- viability, T/C [28]: 64.1%
- viability, T/C [53]: 85.6%
- viability, T/C [30]: 72.9%
- viability, T/C [54]: 58.1%
- viability, T/C [55]: 66.6%
- viability, T/C [56]: 36.4%
- viability, T/C [34]: 74%
- viability, T/C [57]: 65.4%
- viability, T/C [36]: 82.8%
- viability, T/C [58]: 60.6%
- viability, T/C [59]: 55.5%
- viability, T/C [60]: 38.7%

Structure (SMILES): Cn1ncnc1[C@H]1c2n[nH]c(=O)c3cc(F)cc(c23)N[C@@H]1c1ccc(F)cc1 + Cc1[nH]c2ccc(F)cc2c1-c1nc2c3cccnc3c3ncccc3c2[nH]1
- IC50 (second compound 0.0316 µM): > 316 nM
- IC50 (second compound 0.1 µM): > 316 nM
- IC50 (second compound 0.316 µM): > 316 nM
- IC50 (second compound 1 µM): > 316 nM
- IC50 (second compound 3.16 µM): > 316 nM
- IC50 (second compound 10 µM): > 316 nM
- viability, T/C [1]: 98.9%
- viability, T/C [2]: 86.2%
- viability, T/C [3]: 98.2%
- viability, T/C [4]: 103%
- viability, T/C [5]: 104%
- viability, T/C [6]: 66.6%
- viability, T/C [7]: 99.1%
- viability, T/C [8]: 93.8%
- viability, T/C [9]: 82%
- viability, T/C [10]: 79.8%
- viability, T/C [11]: 97.8%
- viability, T/C [12]: 66.8%
- viability, T/C [13]: 99.7%
- viability, T/C [14]: 84.7%
- viability, T/C [15]: 91.4%
- viability, T/C [16]: 89.1%
- viability, T/C [17]: 103%
- viability, T/C [18]: 81.9%
- viability, T/C [19]: 97.4%
- viability, T/C [20]: 68.8%
- viability, T/C [21]: 87.5%
- viability, T/C [22]: 91.3%
- viability, T/C [23]: 96.1%
- viability, T/C [24]: 68.2%
- viability, T/C [25]: 76.8%
- viability, T/C [26]: 87%
- viability, T/C [27]: 85.3%
- viability, T/C [28]: 79.9%
- viability, T/C [29]: 83.7%
- viability, T/C [30]: 86%
- viability, T/C [31]: 70.9%
- viability, T/C [32]: 56.1%
- viability, T/C [33]: 88.3%
- viability, T/C [34]: 80.5%
- viability, T/C [35]: 82.7%
- viability, T/C [36]: 74.3%

Structure (SMILES): O=C(c1cc(Cc2n[nH]c(=O)c3ccccc23)ccc1F)N1CCN(C(=O)C2CC2)CC1 + Cc1[nH]c2ccc(F)cc2c1-c1nc2c3cccnc3c3ncccc3c2[nH]1
- IC50 (second compound 0.0316 µM): > 10000 nM
- IC50 (second compound 0.1 µM): > 10000 nM
- IC50 (second compound 0.316 µM): > 10000 nM
- IC50 (second compound 1 µM): > 10000 nM
- IC50 (second compound 3.16 µM): < 31.6 nM
- IC50 (second compound 10 µM): > 10000 nM
- viability, T/C [4]: 97.7%
- viability, T/C [37]: 105%
- viability, T/C [6]: 101%
- viability, T/C [38]: 82.3%
- viability, T/C [39]: 94.6%
- viability, T/C [40]: 95.2%
- viability, T/C [10]: 114%
- viability, T/C [41]: 93.4%
- viability, T/C [12]: 97.7%
- viability, T/C [42]: 78.3%
- viability, T/C [43]: 93.2%
- viability, T/C [44]: 84.9%
- viability, T/C [16]: 105%
- viability, T/C [45]: 89.1%
- viability, T/C [18]: 91.5%
- viability, T/C [46]: 91.1%
- viability, T/C [47]: 96%
- viability, T/C [48]: 102%
- viability, T/C [22]: 84.3%
- viability, T/C [49]: 87.4%
- viability, T/C [24]: 73.1%
- viability, T/C [50]: 78.5%
- viability, T/C [51]: 99.5%
- viability, T/C [52]: 79.2%
- viability, T/C [28]: 47.6%
- viability, T/C [53]: 87.2%
- viability, T/C [30]: 74.8%
- viability, T/C [54]: 69.1%
- viability, T/C [55]: 91%
- viability, T/C [56]: 87.4%
- viability, T/C [34]: 62.6%
- viability, T/C [57]: 69.1%
- viability, T/C [36]: 92.1%
- viability, T/C [58]: 82.5%
- viability, T/C [59]: 75.9%
- viability, T/C [60]: 89.8%
